According to ChEMBL document CHEMBL3228002, “Sulfonated catecholamide analogues of enterobactin as iron sequestering agents” (J Med Chem, 1979):

Assay: Iron sequestering activity of the compound assessed as [Fe(H2O)6]3+ formation at 10^-5 M at pH 7.4 by spectrophotometrically in presence of 10^-6 M total iron concentration
Work on `CC(=O)N(O)CCCCCNC(=O)CCC(=O)N(O)CCCCCNC(=O)CCC(=O)N(O)CCCCCN` yielded a pM of 26.6.
Compound `O=C(NCc1cc(S(=O)(=O)O)cc(O)c1O)c1cc(C(=O)NCc2cc(S(=O)(=O)O)cc(O)c2O)cc(C(=O)NCc2cc(S(=O)(=O)O)cc(O)c2O)c1` has a pM of 25.1.
With `O=C(NCc1cc(CNC(=O)c2cccc(O)c2O)cc(CNC(=O)c2cccc(O)c2O)c1)c1cccc(O)c1O` the pM was 29.1.
For `CN(C)C(=O)c1cc(S(=O)(=O)O)cc(O)c1O`, the pM was 19.2.
In the case of `O=C(NCc1cc(CNC(=O)c2cc(S(=O)(=O)O)cc(O)c2O)cc(CNC(=O)c2cc(S(=O)(=O)O)cc(O)c2O)c1)c1cc(S(=O)(=O)O)cc(O)c1O`, the pM is reported as 29.4.
Work on `O=C(N[C@H]1COC(=O)[C@@H](NC(=O)c2cccc(O)c2O)COC(=O)[C@@H](NC(=O)c2cccc(O)c2O)COC1=O)c1cccc(O)c1O` yielded a pM of 35.5.
Work on `O=C(NCCCCN(CCCNC(=O)c1cc(S(=O)(=O)O)cc(O)c1O)C(=O)c1cc(S(=O)(=O)O)cc(O)c1O)c1cc(S(=O)(=O)O)cc(O)c1O` yielded a pM of 28.5.
